For this assay, the target named is T1, STAT6 (Homo sapiens, UniProt P42226).
T1 construct: stably transfected HaCaT keratinocyte cell line, which expresses NanoLuc luciferase reporter gene under the transcriptional control of the STAT6 responsive promoter; endogenous in cells; host or cells: HaCaT keratinocyte reporter cell line (stably transfected with a NanoLuc reporter)
T1 sequence (P42226 1-847): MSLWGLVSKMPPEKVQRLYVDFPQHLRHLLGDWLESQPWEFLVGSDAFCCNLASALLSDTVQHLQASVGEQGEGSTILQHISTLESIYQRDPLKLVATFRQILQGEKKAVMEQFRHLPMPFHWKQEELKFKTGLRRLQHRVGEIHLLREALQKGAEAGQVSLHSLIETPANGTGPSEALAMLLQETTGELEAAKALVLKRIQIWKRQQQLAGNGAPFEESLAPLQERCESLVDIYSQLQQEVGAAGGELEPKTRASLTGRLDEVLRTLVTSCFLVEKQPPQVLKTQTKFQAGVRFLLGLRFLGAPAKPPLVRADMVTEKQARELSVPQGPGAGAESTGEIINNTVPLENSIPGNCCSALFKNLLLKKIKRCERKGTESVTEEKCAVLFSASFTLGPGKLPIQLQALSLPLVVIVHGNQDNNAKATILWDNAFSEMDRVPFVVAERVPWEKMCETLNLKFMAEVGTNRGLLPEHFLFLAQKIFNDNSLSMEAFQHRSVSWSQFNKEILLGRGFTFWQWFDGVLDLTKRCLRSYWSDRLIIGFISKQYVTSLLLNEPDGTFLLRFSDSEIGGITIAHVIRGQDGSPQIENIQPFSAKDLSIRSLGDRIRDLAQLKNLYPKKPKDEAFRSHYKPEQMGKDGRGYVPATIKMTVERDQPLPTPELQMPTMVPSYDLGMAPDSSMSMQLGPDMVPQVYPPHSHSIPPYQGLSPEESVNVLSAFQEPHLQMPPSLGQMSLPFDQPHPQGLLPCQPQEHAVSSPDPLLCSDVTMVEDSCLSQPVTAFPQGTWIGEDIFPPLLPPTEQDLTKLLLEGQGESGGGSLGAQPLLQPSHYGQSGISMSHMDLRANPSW
The assay can be described thus: STAT6 Reporter Luciferase Assay (IL-13 stimulated HaCaT keratinocyte NanoLuc reporter cells). The class given is cell-based. To be noted: IL-13 stimulated HaCaT STAT6 NanoLuc reporter cells; read-out: Reporter EC50. An outline of the steps: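 Compounds were tested as 11-point, 4-fold series in duplicate, applied for 2 h at 37 °C in low-serum (2% FBS) DMEM. The cells were a stable HaCaT line with NanoLuc under a STAT6-responsive IL-13Ra2 promoter. After 4 h with 0.12 nM IL-13, Nano-Glo luminescence was measured.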
By EC50 is commonly meant the concentration giving half of the maximal effect. `Cc1nc2c(s1)CCN(C(=O)c1ccc(N3CCc4c(c(C(=O)NCc5ccc(NC(=O)N(C)C)cc5)nn4C(C)C)C3)nc1)C2` [Example 406, N-(4-(3,3-dimethylureido)benzyl)-1-isopropyl-5-(5-(2-methyl-4,5,6,7-tetrahydrothiazolo[4,5-c]pyridine-5-carbonyl)pyridin-2-yl)-4,5,6,7-tetrahydro-1H-pyrazolo[4,3-c]pyridine-3-carboxamide]: the EC50 worked out at 0.011 µM. As for `CC(C)n1nc(C(=O)NCc2ccc(NC(=O)N(C)C)cc2)c2c1CCN(c1ccc(C(=O)N3Cc4cncnc4C3)cn1)C2` [Example 408, 5-(5-(6,7-dihydro-5H-pyrrolo[3,4-d]pyrimidine-6-carbonyl)pyridin-2-yl)-N-(4-(3,3-dimethylureido)benzyl)-1-isopropyl-4,5,6,7-tetrahydro-1H-pyrazolo[4,3-c]pyridine-3-carboxamide], the figure is 0.039 µM; as for `Cc1nc2c(n1C)CCN(C(=O)c1ccc(N3CCc4c(c(C(=O)NCc5ccc(NC(=O)N(C)C)cc5)nn4C(C)C)C3)nc1)C2` [Example 409, 5-(5-(1,2-dimethyl-4,5,6,7-tetrahydro-1H-imidazo[4,5-c]pyridine-5-carbonyl)pyridin-2-yl)-N-(4-(3,3-dimethylureido)benzyl)-1-isopropyl-4,5,6,7-tetrahydro-1H-pyrazolo[4,3-c]pyridine-3-carboxamide], 0.024 µM; as for `Cc1cnc2c(c1)CN(C(=O)c1ccc(N3CCc4c(c(C(=O)NCc5ccc(NC(=O)N(C)C)cc5)nn4C(C)C)C3)nc1)CC2` [Example 410, N-(4-(3,3-dimethylureido)benzyl)-1-isopropyl-5-(5-(3-methyl-5,6,7,8-tetrahydro-1,6-naphthyridine-6-carbonyl)pyridin-2-yl)-4,5,6,7-tetrahydro-1H-pyrazolo[4,3-c]pyridine-3-carboxamide], 0.015 µM. As to `CC(C)n1nc(C(=O)NCc2ccc(NC(=O)N(C)C)cc2)c2c1CCN(c1ccc(C(=O)N3Cc4ccc(C#N)cc4C3)cn1)C2` [Example 411, 5-(5-(5-cyanoisoindoline-2-carbonyl)pyridin-2-yl)-N-(4-(3,3-dimethylureido)benzyl)-1-isopropyl-4,5,6,7-tetrahydro-1H-pyrazolo[4,3-c]pyridine-3-carboxamide], the EC50 was 0.008 µM. On to `CC(C)n1nc(C(=O)NCc2ccc(NC(=O)N(C)C)cc2)c2c1CCN(c1ccc(C(=O)N3CCc4cnc(O)cc4C3)cn1)C2` [Example 412, N-(4-(3,3-dimethylureido)benzyl)-5-(5-(7-hydroxy-1,2,3,4-tetrahydro-2,6-naphthyridine-2-carbonyl)pyridin-2-yl)-1-isopropyl-4,5,6,7-tetrahydro-1H-pyrazolo[4,3-c]pyridine-3-carboxamide], for which the EC50 amounted to 0.396 µM. Turning to `Cc1nc2n(n1)CCN(C(=O)c1ccc(N3CCc4c(c(C(=O)NCc5ccc(NC(=O)N(C)C)cc5)nn4C(C)C)C3)nc1)C2` [Example 413, N-(4-(3,3-dimethylureido)benzyl)-1-isopropyl-5-(5-(2-methyl-5,6,7,8-tetrahydro-[1,2,4]triazolo[1,5-a]pyrazine-7-carbonyl)pyridin-2-yl)-4,5,6,7-tetrahydro-1H-pyrazolo[4,3-c]pyridine-3-carboxamide], the EC50 came out at 0.082 µM. Consider `Cc1nc2n(c1C)CCN(C(=O)c1ccc(N3CCc4c(c(C(=O)NCc5ccc(NC(=O)N(C)C)cc5)nn4C(C)C)C3)nc1)C2` [Example 414, 5-(5-(2,3-dimethyl-5,6,7,8-tetrahydroimidazo[1,2-a]pyrazine-7-carbonyl)pyridin-2-yl)-N-(4-(3,3-dimethylureido)benzyl)-1-isopropyl-4,5,6,7-tetrahydro-1H-pyrazolo[4,3-c]pyridine-3-carboxamide], for which the EC50 came out at 0.066 µM. On to `CC(C)n1nc(C(=O)NCc2ccc(NC(=O)N(C)C)cc2)c2c1CCN(c1ccc(C(=O)N3Cc4cccc(C#N)c4C3)cn1)C2` [Example 415, 5-(5-(4-cyanoisoindoline-2-carbonyl)pyridin-2-yl)-N-(4-(3,3-dimethylureido)benzyl)-1-isopropyl-4,5,6,7-tetrahydro-1H-pyrazolo[4,3-c]pyridine-3-carboxamide], for which the EC50 is 0.003 µM. Turning to `CC(C)n1nc(C(=O)NCc2ccc(NC(=O)N(C)C)cc2)c2c1CCN(c1ccc(C(=O)N3CCc4c(cnn4C)C3)cn1)C2` [Example 416, N-(4-(3,3-dimethylureido)benzyl)-1-isopropyl-5-(5-(1-methyl-4,5,6,7-tetrahydro-1H-pyrazolo[4,3-c]pyridine-5-carbonyl)pyridin-2-yl)-4,5,6,7-tetrahydro-1H-pyrazolo[4,3-c]pyridine-3-carboxamide], the EC50 came to 0.029 µM. As to `CC(C)n1nc(C(=O)NCc2ccc(NC(=O)N(C)C)cc2)c2c1CCN(c1ccc(C(=O)N3CCc4cccnc4C3)cn1)C2` [Example 417, N-(4-(3,3-dimethylureido)benzyl)-1-isopropyl-5-(5-(5,6,7,8-tetrahydro-1,7-naphthyridine-7-carbonyl)pyridin-2-yl)-4,5,6,7-tetrahydro-1H-pyrazolo[4,3-c]pyridine-3-carboxamide], the EC50 was 0.017 µM.

Turning to `Cc1nn(C)c2c1CCN(C(=O)c1ccc(N3CCc4c(c(C(=O)NCc5ccc(NC(=O)N(C)C)cc5)nn4C(C)C)C3)nc1)C2` [Example 418, 5-(5-(1,3-dimethyl-4,5,6,7-tetrahydro-1H-pyrazolo[3,4-c]pyridine-6-carbonyl)pyridin-2-yl)-N-(4-(3,3-dimethylureido)benzyl)-1-isopropyl-4,5,6,7-tetrahydro-1H-pyrazolo[4,3-c]pyridine-3-carboxamide], the EC50 is 0.061 µM. Turning to `Cc1cnn2c1CN(C(=O)c1ccc(N3CCc4c(c(C(=O)NCc5ccc(NC(=O)N(C)C)cc5)nn4C(C)C)C3)nc1)CC2` [Example 419, N-(4-(3,3-dimethylureido)benzyl)-1-isopropyl-5-(5-(3-methyl-4,5,6,7-tetrahydropyrazolo[1,5-a]pyrazine-5-carbonyl)pyridin-2-yl)-4,5,6,7-tetrahydro-1H-pyrazolo[4,3-c]pyridine-3-carboxamide], the EC50 was determined as 0.044 µM.

On to `CC(C)n1nc(C(=O)NCc2ccc(NC(=O)N(C)C)cc2)c2c1CCN(c1ccc(C(=O)N3CCc4c(ncn4C)C3)cn1)C2` [Example 421, N-(4-(3,3-dimethylureido)benzyl)-1-isopropyl-5-(5-(1-methyl-4,5,6,7-tetrahydro-1H-imidazo[4,5-c]pyridine-5-carbonyl)pyridin-2-yl)-4,5,6,7-tetrahydro-1H-pyrazolo[4,3-c]pyridine-3-carboxamide], for which the EC50 turned out to be 0.018 µM. Turning to `CC(C)n1nc(C(=O)NCc2ccc(NC(=O)N(C)C)cc2)c2c1CCN(c1ccc(C(=O)N3CCc4ccc(C#N)cc4C3)cn1)C2` [Example 422, 5-(5-(7-cyano-1,2,3,4-tetrahydroisoquinoline-2-carbonyl)pyridin-2-yl)-N-(4-(3,3-dimethylureido)benzyl)-1-isopropyl-4,5,6,7-tetrahydro-1H-pyrazolo[4,3-c]pyridine-3-carboxamide], the EC50 stood at 0.019 µM.

With `Cc1nc2c(o1)CCN(C(=O)c1ccc(N3CCc4c(c(C(=O)NCc5ccc(NC(=O)N(C)C)cc5)nn4C(C)C)C3)nc1)C2` [Example 423, N-(4-(3,3-dimethylureido)benzyl)-1-isopropyl-5-(5-(2-methyl-4,5,6,7-tetrahydrooxazolo[4,5-c]pyridine-5-carbonyl)pyridin-2-yl)-4,5,6,7-tetrahydro-1H-pyrazolo[4,3-c]pyridine-3-carboxamide], the EC50 came to 0.029 µM.

The record behind these values is patent US20250320213A1, “Nitrogen-Containing Heterocyclic Compounds” (Pfizer Inc., priority 2024, published 2025).
